Assay results as given in paper PMC5351712 (Future Science OA, 2017).
Like-named read-outs stand apart in the source and are kept apart here.

What was measured:
[1] = single oral 20 mg EPL maleate, 12 healthy volunteers; cited from earlier work
[2] = Stability of EPL and EPLT in human plasma under different storage conditions; type: physicochemical; conditions: n = 6
Description: The bench-top stability was performed for each analyte in plasma was determined by three QC levels in six replicates for 8 h at ambient temperature (24 ± 2°C). […] For determination of freeze–thaw stability of the analytes, the spiked plasma samples were frozen for 24 h at -20°C and thawed unassisted at room temperature. When completely thawed, the samples were refrozen for 12–24 h at -20°C. On repeating the freeze−thaw cycle for 2 days, bioanalysis was done on the third day. For short-term stability, frozen plasma samples (-20°C) were kept at room temperature for 4 h before sample processing. Long-term stability was evaluated after storing the frozen plasma samples at -20°C for the whole duration of the study which was almost 30 days. […]

[3] = design: method as in ref 7 = [7]; 7 Yoon KH Kim W Park J Kim HJ Determination of enalapril in human plasma by high performance liquid chromatography-electrospray ionization mass spectrometry Bull. Korean Chem. Soc. 25 878 880 2004; conditions: after oral intake, mean value; cited from earlier work
[4] = design: method as in ref 36 = [36]; 36 Remko M Acidity, lipophilicity, solubility, absorption, and polar surface area of some ACE inhibitors Chem. Pap. 61 133 141 2007; conditions: cited from earlier work
[5] = design: method as in GC–MS method; conditions: single oral 20 mg EPL, 24 healthy adult subjects, mean ± SD; analyte not stated; ref GC–MS method; cited from earlier work
[6] = cited from earlier work; for Time of maximum plasma concentration: after oral administration of EPL
[7] = cited from earlier work
[8] = Autosampler stability 24 h at 24°C, QC 3 ng/ml
[9] = Autosampler stability 24 h at 24°C, QC 200 ng/ml
[10] = Autosampler stability 24 h at 24°C, QC 400 ng/ml
[11] = Bench top stability for 8 h, QC 3 ng/ml
[12] = Bench top stability for 8 h, QC 200 ng/ml
[13] = Bench top stability for 8 h, QC 400 ng/ml
[14] = Freeze and thaw stability at -20°C (3 cycles), QC 3 ng/ml
[15] = Freeze and thaw stability at -20°C (3 cycles), QC 200 ng/ml
[16] = Freeze and thaw stability at -20°C (3 cycles), QC 400 ng/ml
[17] = Long-term stability at -20.0°C for 30 days, QC 3 ng/ml
[18] = Long-term stability at -20.0°C for 30 days, QC 200 ng/ml
[19] = Long-term stability at -20.0°C for 30 days, QC 400 ng/ml

SMILES	Cmax [1] [ng/mL]	Accuracy after storage [2, 8] [%]	Mean concentration after storage [2, 8] [ng/mL]	Accuracy after storage [2, 9] [%]	Mean concentration after storage [2, 9] [ng/mL]	Accuracy after storage [2, 10] [%]	Mean concentration after storage [2, 10] [ng/mL]	Mean concentration after storage [2, 11] [ng/mL]	Accuracy after storage [2, 12] [%]	Mean concentration after storage [2, 12] [ng/mL]	Accuracy after storage [2, 13] [%]	Mean concentration after storage [2, 13] [ng/mL]	Accuracy after storage [2, 14] [%]	Mean concentration after storage [2, 14] [ng/mL]	Accuracy after storage [2, 15] [%]	Mean concentration after storage [2, 15] [ng/mL]	Accuracy after storage [2, 16] [%]	Mean concentration after storage [2, 16] [ng/mL]	Accuracy after storage [2, 17] [%]	Mean concentration after storage [2, 17] [ng/mL]	further results
CCOC(=O)[C@H](CCc1ccccc1)N[C@@H](C)C(=O)N1CCC[C@H]1C(=O)O [EPL, enalapril]	152.1	92.6446	2.7500	100.4675	200.9350	92.6098	384.6733	2.7350	100.3303	200.9567	99.2485	412.2483	91.6339	2.7200	94.7244	189.7283	93.5010	388.3750	90.9601	2.7000	Accuracy after storage [2, 11]: 92.1392%; Accuracy after storage [2, 18]: 98.6628%; Mean concentration after storage [2, 18]: 197.6167 ng/mL; Accuracy after storage [2, 19]: 94.6810%; Mean concentration after storage [2, 19]: 393.2767 ng/mL; Tmax [3]: 0.96 ± 0.36 h; pK a (strongest acidic) [4]: 3.0; polar surface area [4]: 95.9; T1/2 [5]: 4.2 ± 1.6 h; Plasma level after 4 h ([6]; after 4 h not detected above this level): ≤ 10 ng/mL; Time of maximum plasma concentration [6]: ≤ 1 h; Dose recovered in the urine and feces as EPL or EPLT [6]: approximately 94%; Influence of food on absorption after oral administration [6]: not influenced by the presence of food; Terminal half-life [6]: approximately 2 h; Bioavailability ([6]; healthy subjects, absorbed from the GI tract): 60–70%
C[C@H](N[C@@H](CCc1ccccc1)C(=O)O)C(=O)N1CCC[C@H]1C(=O)O [EPLT, enalaprilat]	88.5	98.5516	2.6650	93.8950	187.7900	92.5255	365.4017	2.8833	102.2798	190.4450	98.0713	387.3033	87.8274	2.3750	95.3222	177.4900	88.2284	348.4317	92.3267	2.4967	AUC0–t [7]: 401 ± 89 ng·h/mL; AUC0–∞ [7]: 420 ± 91 ng·h/mL; Cmax [7]: 47.5 ± 12.4 ng/mL; T1/2 [7]: 6.71 ± 2.22 h; Tmax [7]: 4.20 ± 1.06 h; Accuracy after storage [2, 18]: 105.6740%; Mean concentration after storage [2, 18]: 196.7650 ng/mL; Accuracy after storage [2, 19]: 99.7772%; Mean concentration after storage [2, 19]: 394.0400 ng/mL; Half-life ([6]; EPLT after administration of EPL): 30 to 35 h; Time of maximum plasma concentration [6]: 3 to 4 h
